Measurements from publication PMC9406419, “OATD-02 Validates the Benefits of Pharmacological Inhibition of Arginase 1 and 2 in Cancer” (Cancers, 2022).

Test system: Renca tumours
Assay: Syngeneic Renca renal adenocarcinoma model with plasma L-arginine and tumour flow cytometry
Assay type: in vivo, mouse
Protocol: CT26 and K562 in vivo experiments were conducted at Molecure SA. All experimental procedures were approved by the 1st Local Ethics Committee in Warsaw (Poland). For the syngeneic CT26 model, 7–8-week old BALB/c females (n = 9–18 per group, BALB/cAnNCrl, Charles River Laboratories) were injected subcutaneously in the right flank with 5 × 10^5 CT26 cells. […] Anti-PD-L1 antibody (InVivoPlus anti-mouse PD-L1, clone 10F.9G2, BioXCell, lot 615416D1) was injected intraperitoneally at 2.5 mg/kg on days: 8, 10, 12, 14 and 16 post tumour cells inoculation. Control groups received vehicle (saline) or isotype antibody (InVivoPlus rat IgG2b, anti-KLH, BioXCell, lot 629816D1). For the xenograft K562 model, 7–8 week-old athymic nude mice (n = 8–11 per group, Crl:NU(NCr)-Foxn1^nu, Charles River Laboratories) or NK cell-deficient Fox Chase SCID Beige mice (n = 10–12 per group, CB17.Cg-Prkdc^scidLyst^bg-J/Crl, Charles River Laboratories) were injected subcutaneously in the right flank with 1 × 10^7 K562 cells. […] Tumour volume measured by a digital calliper (width × length × depth × π/6) was recorded three times per week. Animals were euthanized when tumours were necrotized or volume exceeded 2000 mm^3. Renca in vivo efficacy study was performed at Crown Biosciences Inc. (Taicang, China). All experimental procedures on animals were approved by the Institutional Animal Care and Use Committee (IACUC) and conducted in accordance with the regulations of the Association for Assessment and Accreditation of Laboratory Animal Care (AAALAC). For the syngeneic Renca model, 6–7 week-old BALB/c females (n = 12 per group, Shanghai Lingchang Biotechnology, Shanghai, China) were injected subcutaneously in the right flank with 1 × 10^6 Renca cells. Tumour volumes (length × width^2 × 0.5) were measured twice per week. OATD-02 was dosed twice per day at 75 mg/kg by oral gavage. A dosing holiday was given to individuals with bodyweight loss exceeding 15% of the initial body weight and the treatment was resumed when the bodyweight loss recovered to less than 10%. Due to the cachexic nature of the Renca model, all animals were supplemented with DietGel to help maintain their body weight.
Dissected tumours were dissociated to obtain single-cell suspensions for antibody staining and immune cell assessment. Prior to the antibody staining, dead cells were labelled with the Fixable Viability Due eFluor™ 780 (eBiosciences, San Diego, CA, USA). The following anti-mouse antibodies were used for flow cytometry: anti-CD45-FITC (clone 30-F11, Biolegend, San Diego, CA, USA), anti-CD3-BUV395 (clone 145-2C11, BD), anti-CD4-BV421 (clone GK1.5, Biolegend), anti-CD8-PE-eFluor610 (clone 53-6.7, eBiosciences), anti-Foxp3-PE (clone FJK-16S, eBiosciences), anti-CD11b-PE-Cy7 (clone M1/70, Biolegend), anti-F4/80-BV510 (clone BM8, Biolegend), and anti-Gr1-APC (clone RB6-8C5, Biolegend).
The concentrations of OATD-02, the reference ARGi or L-arginine were determined in plasma samples or tumour homogenates using liquid chromatography coupled with tandem mass spectrometry (LC-MS/MS). Sample preparation was based on protein precipitation using acetonitrile. The resulting supernatants were analysed using hydrophilic interaction liquid chromatography (HILIC) with subsequent MS detection based on optimised MRM transitions. Matrix-matched calibration and quality control samples were prepared for quantification of OATD-02 and the reference ARGi. Due to the endogenous character of L-arginine, a surrogate matrix was used for its detection.
All statistical analyses were performed using GraphPad Prism (ver. 9, GraphPad Software, Inc., San Diego, CA, USA). Data sets with normal distribution were described as means with SEM (standard error of the mean). Otherwise, the median value was shown and the U Mann–Whitney or the Kruskal–Wallis tests were applied for intergroup comparisons. Differences at p-value less than 0.05 were considered statistically significant. […]

## CN(C)C[C@@H]1CC[C@@H](CCB(O)O)C[C@]1(N)C(=O)O [OATD-02]
75 mg/kg PO BID from day 1, day 22 post-inoculation, not statistically significant
  TGI, syngeneic Renca model: 31%
Renca tumours, flow cytometry, Foxp3+ within CD4+ T cells, p = 0.0196
  levels of Tregs in the tumour microenvironment: decreased levels
Renca tumours, flow cytometry, p = 0.0173
  levels of MDSCs in the tumour microenvironment: decreased levels
Renca tumours, flow cytometry, p = 0.0281
  CD8+/Treg cell ratio: beneficial increase
Renca tumours, flow cytometry, p = 0.0284
  levels of neutrophils in the tumour microenvironment: decreased levels
Renca-bearing mice, 75 mg/kg PO BID, 16 h upon last dose
  fold increase in plasma L-arginine: 6.6 fold
